From patent US9090601B2, “Thiazole derivatives” (Millennium Pharmaceuticals, Inc., priority 2009, dated 2015)

Biological target: T1, PI3Kalpha (Homo sapiens, UniProt P42336)
T1 construct: His (N); host or cells: baculovirus expression system (insect cells)
Test: PI3K alpha enzyme assay (HTRF)
Assay type: biochemical
Conditions: PI3Kalpha 0.4875 nM, ATP 25 uM, di-C8 PI(4,5)P2 3.5 uM, 30 min room temperature; read-out: IC50 (inhibit PI3Kalpha)
Experimental: 0.5 uL compounds in DMSO are added to wells of a 384 well microtitre plate (Corning 3575). At room temperature: 10 ul PI3K reaction buffer (50 mM Hepes, 5 mM DTT, 150 mM NaCl, 10 mM beta-glycerophosphate, 10 mM MgCl2, 0.25 mM sodium cholate and 0.001% CHAPS, pH 7.00) containing ATP (25 uM, Promega) is added followed immediately by 10 ul PI3K reaction buffer containing di-C8 PI(4,5)P2 (3.5 uM, CellSignals) and PI3Kalpha (0.4875 nM, Millennium Protein Sciences Group) and the mixture is incubated with shaking at room temperature for 30 minutes. Then 5 ul PI3K stop mix (50 mM Hepes, 5 mM DTT, 150 mM NaCl, 0.01% Tween-20, 15 mM EDTA and 25 nM biotin-PI(3,4,5)P3 (Echelon) is added to quench the reaction followed immediately by addition of 5 ul HTRF detection mix (50 mM Hepes, 5 mM DTT, 150 mM NaCl, 0.01% Tween-20, 40 mM KF, 10 nM GST:GRP-1 PH domain (Millennium Protein Sciences Group), 15 nM Streptavidin-XL (CisBio) and 0.375 nM anti-GST Eu++ antibody (CisBio) at pH 7.00). The plates are then incubated for 1 hour at room temperature with shaking and then read on a BMG PheraStar Plus reader.

T1 sequence (P42336 whole entry): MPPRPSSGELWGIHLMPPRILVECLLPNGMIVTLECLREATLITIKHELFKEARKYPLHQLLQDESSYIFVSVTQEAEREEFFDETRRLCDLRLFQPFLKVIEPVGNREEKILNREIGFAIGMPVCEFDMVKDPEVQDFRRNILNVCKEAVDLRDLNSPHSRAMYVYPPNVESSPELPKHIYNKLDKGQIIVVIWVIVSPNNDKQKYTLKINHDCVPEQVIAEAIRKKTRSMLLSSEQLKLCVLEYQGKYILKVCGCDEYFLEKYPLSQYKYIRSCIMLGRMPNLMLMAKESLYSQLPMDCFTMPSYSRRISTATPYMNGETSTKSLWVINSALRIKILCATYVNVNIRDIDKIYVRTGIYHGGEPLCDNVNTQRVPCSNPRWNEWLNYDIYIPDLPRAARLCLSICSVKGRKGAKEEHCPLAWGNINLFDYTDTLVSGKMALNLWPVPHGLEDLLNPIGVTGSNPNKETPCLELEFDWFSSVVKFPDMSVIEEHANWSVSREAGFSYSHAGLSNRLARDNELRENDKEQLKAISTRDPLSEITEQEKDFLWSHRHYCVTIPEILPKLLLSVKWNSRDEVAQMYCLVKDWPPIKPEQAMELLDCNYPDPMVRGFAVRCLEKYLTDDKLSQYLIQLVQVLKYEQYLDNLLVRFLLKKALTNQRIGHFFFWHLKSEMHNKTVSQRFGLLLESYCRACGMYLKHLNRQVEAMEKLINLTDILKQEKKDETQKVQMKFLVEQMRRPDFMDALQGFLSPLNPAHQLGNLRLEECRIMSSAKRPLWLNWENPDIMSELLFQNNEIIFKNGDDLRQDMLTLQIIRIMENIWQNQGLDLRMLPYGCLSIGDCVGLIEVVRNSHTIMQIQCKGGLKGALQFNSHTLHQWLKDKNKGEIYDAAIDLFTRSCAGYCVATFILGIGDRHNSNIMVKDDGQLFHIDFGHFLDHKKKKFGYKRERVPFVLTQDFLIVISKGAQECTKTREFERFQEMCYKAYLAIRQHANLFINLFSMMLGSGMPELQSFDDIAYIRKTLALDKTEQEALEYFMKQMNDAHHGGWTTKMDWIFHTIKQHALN
T1 sequence (P27986 whole entry partner): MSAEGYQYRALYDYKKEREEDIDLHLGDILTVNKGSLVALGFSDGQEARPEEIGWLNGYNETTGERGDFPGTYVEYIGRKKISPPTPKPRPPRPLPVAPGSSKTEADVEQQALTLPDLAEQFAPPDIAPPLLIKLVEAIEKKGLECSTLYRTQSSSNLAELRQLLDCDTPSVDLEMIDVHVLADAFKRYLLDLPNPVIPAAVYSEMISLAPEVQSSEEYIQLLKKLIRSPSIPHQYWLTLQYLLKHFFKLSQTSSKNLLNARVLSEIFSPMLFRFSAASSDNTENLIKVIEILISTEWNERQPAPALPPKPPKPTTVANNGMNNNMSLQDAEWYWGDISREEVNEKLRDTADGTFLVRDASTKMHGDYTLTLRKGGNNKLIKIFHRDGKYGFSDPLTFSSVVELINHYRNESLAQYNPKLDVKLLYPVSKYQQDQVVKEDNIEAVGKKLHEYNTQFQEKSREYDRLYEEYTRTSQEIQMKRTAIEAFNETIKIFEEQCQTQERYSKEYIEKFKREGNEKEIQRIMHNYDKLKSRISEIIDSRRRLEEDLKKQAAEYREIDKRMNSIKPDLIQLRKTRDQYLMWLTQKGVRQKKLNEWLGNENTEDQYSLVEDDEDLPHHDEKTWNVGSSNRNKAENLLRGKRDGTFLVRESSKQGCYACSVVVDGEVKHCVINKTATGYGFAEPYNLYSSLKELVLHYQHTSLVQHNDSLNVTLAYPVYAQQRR

SMILES | IC50
CC(=O)Nc1cc(-c2nc(-c3ccc(-c4nnc(C)o4)cc3)c(-c3ncc[nH]3)s2)ccn1 [Example 8-C] | > 1000 nM
COc1ccc(-c2nc(-c3ccnc(NC(C)=O)c3)sc2-c2ncc[nH]2)cc1OC [Example 16-C] | > 1000 nM
Cc1nn2c(c1-c1nc(C3CCCCC3)c(-c3nnc[nH]3)s1)CCCC2 [Example 19-B, 3-[4-cyclohexyl-5-(4H-1,2,4-triazol-3-yl)-1,3-thiazol-2-yl]-2-methyl-4,5,6,7-tetrahydropyrazolo[1,5-a]pyridine] | > 1000 nM
CC(=O)Nc1cc(-c2nc(-c3ccncc3)c(-c3ncc[nH]3)s2)ccn1 [Example 27-C] | > 1000 nM
CC(=O)Nc1cc(-c2nc(-c3ccccc3)c(-c3ncc[nH]3)s2)c(C)cn1 [Example 36-C] | > 1000 nM
CCOc1nc(-c2ccnc(NC(=O)C3CCCCC3)c2)sc1-c1nnc[nH]1 [Example 50-B, N-{4-[4-ethoxy-5-(4H-1,2,4-triazol-3-yl)-1,3-thiazol-2-yl]pyridin-2-yl}cyclohexanecarboxamide] | > 1000 nM
CC(=O)Nc1cc(-c2nc(Br)c(-c3ncc[nH]3)s2)ccn1 [Example 58-C] | > 1000 nM
CC(=O)Nc1cc(-c2nc(-c3ccc(Oc4ccccc4)cc3)c(-c3ncc[nH]3)s2)ccn1 [Example 60-C] | > 1000 nM
CC(=O)Nc1cc(-c2nc(-c3ccccc3Cl)c(-c3nnc[nH]3)s2)c(C)cn1 [Example 65-C] | > 1000 nM
CCOc1nc(-c2ccnc(NC(=O)c3ccncc3)c2)sc1-c1nnc[nH]1 [Example 67-B, N-{4-[4-ethoxy-5-(4H-1,2,4-triazol-3-yl)-1,3-thiazol-2-yl]pyridin-2-yl}pyridine-4-carboxamide] | > 1000 nM
CCOc1nc(-c2ccnc(NC(=O)c3c(F)cccc3F)c2)sc1-c1nnc[nH]1 [Example 71-B, N-{4-[4-ethoxy-5-(4H-1,2,4-triazol-3-yl)-1,3-thiazol-2-yl]pyridin-2-yl}-2,6-difluorobenzamide] | > 1000 nM

Next, values leading:

IC50 | SMILES
> 1000 nM | CC(=O)Nc1cc(-c2nc(-c3ccccc3Cl)c(C(=O)NC[C@@H](C)O)s2)ccn1 [Example 4-C]
> 1000 nM | CC(=O)Nc1cc(-c2nc(-c3cccc(-n4cccn4)c3)c(-c3ncc[nH]3)s2)ccn1 [Example 14-C]
> 1000 nM | COc1cnc(NC(C)=O)cc1-c1nc(-c2ccc(Cl)cc2Cl)c(-c2ncc[nH]2)s1 [Example 18-C]
> 1000 nM | CC(=O)Nc1cc(-c2nc(-c3ccccc3Cl)c(-c3ncc[nH]3)s2)c(C)cn1 [Example 30-C]
> 1000 nM | Cc1nc2cccnn2c1-c1nc(-c2ccccc2)c(-c2nnc[nH]2)s1 [Example 41-B, 2-methyl-3-[4-phenyl-5-(4H-1,2,4-triazol-3-yl)-1,3-thiazol-2-yl]imidazo[1,2-b]pyridazine]
> 1000 nM | CC(=O)Nc1cc(-c2nc(-c3ccc(OC(C)C)cc3)c(-c3ncc[nH]3)s2)ccn1 [Example 46-C]
> 1000 nM | CC(=O)Nc1cc(-c2nc(-c3ccc(F)c(CO)c3)c(-c3ncc[nH]3)s2)ccn1 [Example 47-C]
> 1000 nM | CC(=O)Nc1cc(-c2nc(-c3ccccc3Cl)c(C(=O)NCCO)s2)ccn1 [Example 48-C, 2-[2-(acetylamino)pyridin-4-yl]-4-(2-chlorophenyl)-N-(2-hydroxyethyl)-1,3-thiazole-5-carboxamide]
> 1000 nM | CCOc1nc(-c2ccnc(NC(=O)c3ccccn3)c2)sc1-c1nnc[nH]1 [Example 49-B, N-{4-[4-ethoxy-5-(4H-1,2,4-triazol-3-yl)-1,3-thiazol-2-yl]pyridin-2-yl}pyridine-2-carboxamide]
> 1000 nM | CCOc1nc(-c2ccnc(NC(=O)c3sccc3C)c2)sc1-c1nnc[nH]1 [Example 52-B, N-{4-[4-ethoxy-5-(4H-1,2,4-triazol-3-yl)-1,3-thiazol-2-yl]pyridin-2-yl}-3-methylthiophene-2-carboxamide]
> 1000 nM | CCOc1nc(-c2ccnc(NC(=O)c3ccccc3Cl)c2)sc1-c1nnc[nH]1 [Example 54-B, 2-chloro-N-{4-[4-ethoxy-5-(4H-1,2,4-triazol-3-yl)-1,3-thiazol-2-yl]pyridin-2-yl}benzamide]
> 1000 nM | CC(=O)Nc1cc(-c2nc(-c3c(C)cccc3C)c(-c3nnc[nH]3)s2)ccn1 [Example 56-C, N-{4-[4-(2,6-dimethylphenyl)-5-(4H-1,2,4-triazol-3-yl)-1,3-thiazol-2-yl]pyridin-2-yl}acetamide]
> 1000 nM | COc1ccc(-c2nc(-c3ccnc(NC(C)=O)c3)sc2-c2ncc[nH]2)cc1 [Example 62-C]
> 1000 nM | COCCNC(=O)c1sc(-c2ccnc(NC(C)=O)c2)nc1-c1ccccc1Cl [Example 64-C]
> 1000 nM | CCOc1nc(-c2ccnc(NC(=O)C(C)(C)C)c2)sc1-c1nnc[nH]1 [Example 66-B, N-{4-[4-ethoxy-5-(4H-1,2,4-triazol-3-yl)-1,3-thiazol-2-yl]pyridin-2-yl}-2,2-dimethylpropanamide]
> 1000 nM | CCOc1nc(-c2ccnc(NC(=O)c3ccccc3C)c2)sc1-c1nnc[nH]1 [Example 68-B, N-{4-[4-ethoxy-5-(4H-1,2,4-triazol-3-yl)-1,3-thiazol-2-yl]pyridin-2-yl}-2-methylbenzamide]
> 1000 nM | CC(=O)Nc1cccc(-c2nc(-c3ccnc(NC(C)=O)c3)sc2-c2ncc[nH]2)c1 [Example 72-C]
> 1000 nM | COc1cccc(OC)c1-c1nc(-c2c(C)nn3ccccc23)sc1-c1nc[nH]n1 [Example 102-B, 3-[4-(2,6-dimethoxyphenyl)-5-(1H-1,2,4-triazol-3-yl)-1,3-thiazol-2-yl]-2-methylpyrazolo[1,5-a]pyridine]

Biological target: T2, hPI3Kα (p110alpha catalytic subunit and human p85alpha regulatory subunit complex) (Homo sapiens, UniProt P42336)
T2 construct: made in house; host or cells: Sf21 insect cells (baculovirus, Bac-to-Bac)
Test: Human PI3Kα enzyme assay (Phospholipid FlashPlate, γ-[33P] ATP)
Assay type: biochemical
Conditions: PI3Kα enzyme activity, compound at 1.0 μm, 500 nM ATP
Experimental: hPIK3CA; p110alpha catalytic subunit (GenBank ACCESSION# NM_006218) and hPIK3R1; p85alpha regulatory subunit (GenBank ACCESSION# NM_181523) are cloned from human cDNA library (Clonetec).
Human p110alpha catalytic subunit gene and human p85alpha regulatory subunit gene are respectively inserted into pFASTBacHT (Invitrogen), and each gene was introduced into a baculovirus vector using a Bac-to-Bac system (Invitrogen). Both viruses are injected to insect cultured cells Sf21 to allow coexpression of proteins. p110alpha catalytic subunit and human p85alpha regulatory subunit complex (hPI3Kα) are purified from the cell extract using a Ni chelate column.
L-alpha-Phosphatidyl-D-myo-inositol 4,5-Diphosphate (diC16) [PI(4,5)P2, Wako Pure Chemical Industries, Ltd.] is suspended in Phospholipid FlashPlate Coating Buffer (PerkinElmer) and applied onto Phospholipid FlashPlate PLUS. PI3K reaction buffer (50 mM Tris-HCl, pH 7.4, 5 mM MgCl2, 1 mM DTT, 0.005% BSA) containing hPI3Kα, γ-[^33P] ATP (PerkinElmer) and cold 500 nM ATP is added to the wells on this plate and the mixture is reacted at room temperature for 1 hr. 50 mM EDTA solution is added to quench the reaction, and the wells are washed with PBS. The radioactivity remaining in the well is measured as enzyme activity by TopCount (PerkinElmer).

T2 sequence (P42336 whole entry): as the sequence (P42336 whole entry) above
T2 sequence (P27986 whole entry partner): as the sequence (P27986 whole entry partner) above

Inhibitory rate at 1.0 μm (%) | SMILES
100% | C=CCOc1nc(-c2c(C)nn3ccccc23)sc1-c1nnc[nH]1 [Example 27-B, 2-methyl-3-[4-(prop-2-en-1-yloxy)-5-(4H-1,2,4-triazol-3-yl)-1,3-thiazol-2-yl]pyrazolo[1,5-a]pyridine]
100% | Cc1nn2ccc(OCCN3CCCCC3)cc2c1-c1nc(-c2ccccc2)c(-c2nnc[nH]2)s1 [Example 32-B, 2-methyl-3-[4-phenyl-5-(4H-1,2,4-triazol-3-yl)-1,3-thiazol-2-yl]-5-(2-piperidin-1-ylethoxy)pyrazolo[1,5-a]pyridine di-p-toluenesulfonate]

SMILES | Inhibitory rate at 1.0 μm (%)
Cc1nn2ccsc2c1-c1nc(-c2ccccc2)c(-c2nnc[nH]2)s1 [Example 35-B, 6-methyl-7-[4-phenyl-5-(4H-1,2,4-triazol-3-yl)-1,3-thiazol-2-yl]pyrazolo[5,1-b][1,3]thiazole acetate] | 101%

Biological target: T3, human mTOR (Homo sapiens, UniProt P42345)
T3 construct: purchased Invitrogen
Test: Human mTOR enzyme assay (Z'-lyte peptide FRET)
Assay type: biochemical
Conditions: mTOR enzyme activity, compound at 1.0 μm, 10 μM ATP
Experimental: mTOR reaction buffer (50 mM HEPES, pH 7.5, 5 mM MgCl2, 5 mM MnCl2, 1 mM EGTA, 1 mM DTT, 0.01% BRIJ-35, 0.01% NaN3) containing human mTOR (Invitrogen), 10 μM ATP and 2 μM Z′-lyte 11Ser/Thr peptide (Invitrogen) is added to the well and the mixture is reacted at room temperature for 1 hr.
Development Buffer containing Development Reagent B (for Z′-lyte peptide, Invitrogen) was added, and the mixture is reacted at room temperature for 30 min. The fluorescence at 520 nm and fluorescence at 445 nm are measured with excitation at 400 nm using SpectraMax M5e (Molecular Device). The ratio of the obtained 445 nm fluorescence value/520 nm fluorescence value is calculated, and changes in the fluorescence resonance energy transfer (FRET) of Z′-lyte peptide are detected as the enzyme activity.

T3 sequence (P42345 1360-2549 limits assumed): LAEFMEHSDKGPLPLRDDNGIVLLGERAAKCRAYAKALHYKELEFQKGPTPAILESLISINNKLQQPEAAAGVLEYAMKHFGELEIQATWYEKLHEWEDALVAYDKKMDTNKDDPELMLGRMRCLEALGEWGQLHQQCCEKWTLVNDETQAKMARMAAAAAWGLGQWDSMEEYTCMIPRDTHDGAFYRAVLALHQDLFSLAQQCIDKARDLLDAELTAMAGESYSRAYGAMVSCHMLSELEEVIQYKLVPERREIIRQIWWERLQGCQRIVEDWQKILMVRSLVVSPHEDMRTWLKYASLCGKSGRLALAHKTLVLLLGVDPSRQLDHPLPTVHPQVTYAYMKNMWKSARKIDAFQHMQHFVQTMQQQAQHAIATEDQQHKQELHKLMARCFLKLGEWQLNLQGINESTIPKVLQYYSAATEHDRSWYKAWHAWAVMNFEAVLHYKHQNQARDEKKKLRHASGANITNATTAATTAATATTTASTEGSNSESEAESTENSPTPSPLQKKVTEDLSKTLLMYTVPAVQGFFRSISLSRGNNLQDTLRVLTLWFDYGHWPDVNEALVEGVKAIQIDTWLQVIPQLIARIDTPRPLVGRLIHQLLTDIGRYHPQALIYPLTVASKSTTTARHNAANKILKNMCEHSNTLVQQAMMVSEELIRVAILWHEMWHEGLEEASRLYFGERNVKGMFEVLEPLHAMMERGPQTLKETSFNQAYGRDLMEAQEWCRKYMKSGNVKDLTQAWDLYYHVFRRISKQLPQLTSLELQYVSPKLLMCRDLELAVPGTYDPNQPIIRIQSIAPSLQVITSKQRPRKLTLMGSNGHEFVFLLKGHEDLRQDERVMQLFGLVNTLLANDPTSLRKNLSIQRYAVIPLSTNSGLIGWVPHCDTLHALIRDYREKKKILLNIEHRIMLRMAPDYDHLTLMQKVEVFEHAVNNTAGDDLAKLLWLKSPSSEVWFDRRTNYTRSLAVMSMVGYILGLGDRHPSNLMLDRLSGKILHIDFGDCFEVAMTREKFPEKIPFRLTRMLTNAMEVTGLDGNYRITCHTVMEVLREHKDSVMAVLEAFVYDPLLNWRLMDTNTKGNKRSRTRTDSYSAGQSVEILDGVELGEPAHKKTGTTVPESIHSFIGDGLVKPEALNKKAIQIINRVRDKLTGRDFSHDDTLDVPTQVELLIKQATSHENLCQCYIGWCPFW

Inhibitory rate at 1.0 μm (%) | SMILES
93% | Cc1nn2ccc(OCCN3CCOCC3)cc2c1-c1nc(-c2ccccc2)c(-c2nnc[nH]2)s1 [Example 31-B, 2-methyl-5-(2-morpholin-4-ylethoxy)-3-[4-phenyl-5-(4H-1,2,4-triazol-3-yl)-1,3-thiazol-2-yl]pyrazolo[1,5-a]pyridine di-p-toluenesulfonate]
91% | Cc1nn2ccc(OCCO)cc2c1-c1nc(-c2ccccc2)c(-c2nnc[nH]2)s1 [Example 33-B, 2-({2-methyl-3-[4-phenyl-5-(4H-1,2,4-triazol-3-yl)-1,3-thiazol-2-yl]pyrazolo[1,5-a]pyridin-5-yl}oxy)ethanol]
